In ChEMBL document CHEMBL3885861, “Open TG-GATES”:

Species: Rattus norvegicus
Test: Open TG-GATES - Regimen: Single
Assay type: toxicity, organism-based, Sprague-Dawley
Design: regimen Single, gender Male, age 6 weeks
Conditions: in vivo, po, route gavage; for gamma-GTP / ALP / AST / BUN / CRE / Ca / DBIL / GLC / IP / K / LDH / Na / PL / RALB / TBIL / TC / TG / TP / ALT: tissue Plasma; for APTT / Bas / Eos / Fbg / Hb / Ht / MCH / MCHC / MCV / Mono / Neu / PT / Plat / RBC / Ret / WBC / Lym: tissue Blood; for KIDNEY_L / KIDNEY_R / KIDNEY_TOTAL: tissue Kidney; for LIVER: tissue Liver
[1] = 300 mg/kg, 3 h, dose level Middle
[2] = 300 mg/kg, 6 h, dose level Middle
[3] = 300 mg/kg, 9 h, dose level Middle
[4] = 300 mg/kg, 24 h, dose level Middle
[5] = 1000 mg/kg, 3 h, dose level High
[6] = 1000 mg/kg, 6 h, dose level High
[7] = 1000 mg/kg, 9 h, dose level High
[8] = 1000 mg/kg, 24 h, dose level High

O=C(O)c1cn(C2CC2)c2cc(N3CCNCC3)c(F)cc2c1=O [CIPROFLOXACIN]
gamma-GTP (100 mg/kg, 24 h, dose level Low): 1.4 IU/L | TERMINAL_BW [1]: 184.9 g | APTT [1]: 16.7 s | Bas [1]: 0% | Eos [1]: 0.4% | Fbg [1]: 204.6 mg/dL | Hb [1]: 13.2 g/dL | Ht [1]: 39.5% | MCH [1]: 22.8 pg | MCHC [1]: 33.4% | MCV [1]: 68.2 fL | Mono [1]: 6% | Neu [1]: 14.2% | PT [1]: 12.4 s | Plat [1]: 99.2 x10_4/uL | RBC [1]: 579 x10_4/ul | Ret [1]: 11.6% | WBC [1]: 102.6 x10_2/uL | KIDNEY_L [1]: 0.8 g | KIDNEY_R [1]: 0.9 g | KIDNEY_TOTAL [1]: 1.7 g | LIVER [1]: 9 g | ALP [1]: 905.6 IU/L | AST [1]: 68.2 IU/L | BUN [1]: 11.6 mg/dL | CRE [1]: 0.5 mg/dL | Ca [1]: 11 mg/dL | DBIL [1]: 0.006 mg/dL | GLC [1]: 183.6 mg/dL | IP [1]: 9.9 mg/dL | K [1]: 4.7 meq/L | LDH [1]: 78.6 IU/L | Na [1]: 138.8 meq/L | PL [1]: 145.6 mg/dL | RALB [1]: 3.9 g/dL | TBIL [1]: 0.4 mg/dL | TC [1]: 84 mg/dL | TG [1]: 43.6 mg/dL | TP [1]: 5.5 g/dL | gamma-GTP [1]: 1 IU/L | TERMINAL_BW [2]: 179.8 g | Bas [2]: 0% | Eos [2]: 1% | Fbg [2]: 208.2 mg/dL | Hb [2]: 12.8 g/dL | MCH [2]: 22.1 pg | MCHC [2]: 33% | MCV [2]: 67.1 fL | Mono [2]: 8% | PT [2]: 12.4 s | Plat [2]: 101.5 x10_4/uL | RBC [2]: 579.8 x10_4/ul | Ret [2]: 10.5% | WBC [2]: 103.6 x10_2/uL | KIDNEY_L [2]: 0.9 g | KIDNEY_R [2]: 0.8 g | KIDNEY_TOTAL [2]: 1.7 g | LIVER [2]: 8.1 g | ALP [2]: 804.2 IU/L | ALT [2]: 35.2 IU/L | BUN [2]: 11 mg/dL | CRE [2]: 0.5 mg/dL | Ca [2]: 11.6 mg/dL | DBIL [2]: 0.038 mg/dL | GLC [2]: 175.2 mg/dL | IP [2]: 10.3 mg/dL | K [2]: 5.1 meq/L | LDH [2]: 82.2 IU/L | Na [2]: 138 meq/L | PL [2]: 131.8 mg/dL | RALB [2]: 3.8 g/dL | TBIL [2]: 0.4 mg/dL | TC [2]: 82.2 mg/dL | TG [2]: 36.2 mg/dL | TP [2]: 5.6 g/dL | gamma-GTP [2]: 1.4 IU/L | TERMINAL_BW [3]: 176.2 g | APTT [3]: 16.9 s | Bas [3]: 0% | Eos [3]: 0.8% | Fbg [3]: 220.4 mg/dL | Hb [3]: 13.2 g/dL | Ht [3]: 39.7% | Lym [3]: 81% | MCV [3]: 67.5 fL | Mono [3]: 5.2% | Neu [3]: 13.4% | PT [3]: 11.5 s | Plat [3]: 101.9 x10_4/uL | RBC [3]: 588.6 x10_4/ul | Ret [3]: 9.9% | WBC [3]: 105.6 x10_2/uL | KIDNEY_L [3]: 0.8 g | KIDNEY_R [3]: 0.8 g | KIDNEY_TOTAL [3]: 1.7 g | LIVER [3]: 7.2 g | ALP [3]: 927.2 IU/L | ALT [3]: 33 IU/L | AST [3]: 67.4 IU/L | BUN [3]: 10.2 mg/dL | CRE [3]: 0.5 mg/dL | DBIL [3]: 0.082 mg/dL | GLC [3]: 191.4 mg/dL | IP [3]: 10.9 mg/dL | K [3]: 5 meq/L | LDH [3]: 79.8 IU/L | Na [3]: 139.2 meq/L | PL [3]: 120.4 mg/dL | RALB [3]: 3.9 g/dL | TBIL [3]: 0.3 mg/dL | TC [3]: 72.8 mg/dL | TP [3]: 5.6 g/dL | gamma-GTP [3]: 1.4 IU/L | TERMINAL_BW [4]: 194.3 g | Bas [4]: 0% | Eos [4]: 1% | Fbg [4]: 214.4 mg/dL | Hb [4]: 12.9 g/dL | Lym [4]: 77.2% | MCH [4]: 21.4 pg | MCHC [4]: 33.1% | MCV [4]: 64.8 fL | Mono [4]: 7% | PT [4]: 12.4 s | Plat [4]: 106.2 x10_4/uL | RBC [4]: 600.4 x10_4/ul | Ret [4]: 9.4% | WBC [4]: 96.1 x10_2/uL | KIDNEY_L [4]: 0.9 g | KIDNEY_R [4]: 0.9 g | KIDNEY_TOTAL [4]: 1.8 g | LIVER [4]: 8.5 g | ALP [4]: 843 IU/L | ALT [4]: 37.8 IU/L | AST [4]: 71.8 IU/L | BUN [4]: 17.6 mg/dL | CRE [4]: 0.5 mg/dL | Ca [4]: 11.3 mg/dL | DBIL [4]: 0.058 mg/dL | GLC [4]: 193 mg/dL | IP [4]: 9.2 mg/dL | K [4]: 4.7 meq/L | LDH [4]: 93.4 IU/L | Na [4]: 140.2 meq/L | PL [4]: 153.2 mg/dL | RALB [4]: 3.9 g/dL | TBIL [4]: 0.3 mg/dL | TC [4]: 95.4 mg/dL | TG [4]: 49 mg/dL | TP [4]: 5.9 g/dL | gamma-GTP [4]: 1.8 IU/L | TERMINAL_BW [5]: 182 g | APTT [5]: 17 s | Bas [5]: 0% | Eos [5]: 0.4% | Fbg [5]: 215.6 mg/dL | Hb [5]: 12.9 g/dL | Lym [5]: 80.4% | MCH [5]: 21.7 pg | MCHC [5]: 33.1% | MCV [5]: 65.5 fL | Mono [5]: 6.6% | Neu [5]: 12.6% | PT [5]: 12.6 s | Plat [5]: 101.8 x10_4/uL | RBC [5]: 592.8 x10_4/ul | Ret [5]: 11.2% | WBC [5]: 101.3 x10_2/uL | KIDNEY_L [5]: 0.8 g | KIDNEY_R [5]: 0.8 g | KIDNEY_TOTAL [5]: 1.7 g | LIVER [5]: 8.6 g | ALP [5]: 791 IU/L | ALT [5]: 36.8 IU/L | CRE [5]: 0.5 mg/dL | DBIL [5]: 0.022 mg/dL | GLC [5]: 191.2 mg/dL | IP [5]: 10.3 mg/dL | K [5]: 4.7 meq/L | LDH [5]: 132.2 IU/L | Na [5]: 139 meq/L | PL [5]: 141 mg/dL | RALB [5]: 3.8 g/dL | TBIL [5]: 0.3 mg/dL | TC [5]: 81.2 mg/dL | TG [5]: 47 mg/dL | TP [5]: 5.6 g/dL | gamma-GTP [5]: 1.4 IU/L | TERMINAL_BW [6]: 179.7 g | Bas [6]: 0% | Eos [6]: 0.8% | Fbg [6]: 210.4 mg/dL | Hb [6]: 12.9 g/dL | Ht [6]: 39.1% | Lym [6]: 78.2% | MCHC [6]: 32.9% | MCV [6]: 67.5 fL | Mono [6]: 7.6% | Neu [6]: 13.8% | PT [6]: 12.5 s | Plat [6]: 100.8 x10_4/uL | RBC [6]: 579.8 x10_4/ul | Ret [6]: 10% | WBC [6]: 97.6 x10_2/uL | KIDNEY_L [6]: 0.8 g | KIDNEY_R [6]: 0.8 g | KIDNEY_TOTAL [6]: 1.7 g | LIVER [6]: 7.9 g | ALP [6]: 904.2 IU/L | AST [6]: 69.4 IU/L | BUN [6]: 10 mg/dL | CRE [6]: 0.5 mg/dL | Ca [6]: 11.4 mg/dL | DBIL [6]: 0.052 mg/dL | GLC [6]: 185.8 mg/dL | IP [6]: 10.8 mg/dL | K [6]: 5.3 meq/L | LDH [6]: 140.4 IU/L | Na [6]: 138 meq/L | PL [6]: 137.2 mg/dL | RALB [6]: 3.7 g/dL | TBIL [6]: 0.3 mg/dL | TC [6]: 79.8 mg/dL | TP [6]: 5.5 g/dL | gamma-GTP [6]: 1 IU/L | TERMINAL_BW [7]: 176.2 g | APTT [7]: 16.9 s | Bas [7]: 0% | Eos [7]: 0.8% | Fbg [7]: 223 mg/dL | Hb [7]: 13.2 g/dL | Ht [7]: 39.9% | Lym [7]: 83.6% | MCH [7]: 22 pg | MCHC [7]: 33% | MCV [7]: 66.5 fL | Mono [7]: 5.8% | Neu [7]: 10% | PT [7]: 11.4 s | Plat [7]: 104.6 x10_4/uL | RBC [7]: 601 x10_4/ul | WBC [7]: 94.6 x10_2/uL | KIDNEY_L [7]: 0.8 g | KIDNEY_R [7]: 0.9 g | KIDNEY_TOTAL [7]: 1.7 g | LIVER [7]: 7.3 g | ALP [7]: 763.8 IU/L | AST [7]: 71.4 IU/L | BUN [7]: 11 mg/dL | CRE [7]: 0.5 mg/dL | Ca [7]: 10.8 mg/dL | DBIL [7]: 0.08 mg/dL | GLC [7]: 192.4 mg/dL | IP [7]: 11 mg/dL | K [7]: 5.2 meq/L | LDH [7]: 168.2 IU/L | Na [7]: 139 meq/L | PL [7]: 131.4 mg/dL | RALB [7]: 3.8 g/dL | TBIL [7]: 0.3 mg/dL | TC [7]: 78 mg/dL | TG [7]: 22.2 mg/dL | TP [7]: 5.6 g/dL | gamma-GTP [7]: 1.4 IU/L | TERMINAL_BW [8]: 193.6 g | APTT [8]: 15.4 s | Bas [8]: 0% | Eos [8]: 0.8% | Fbg [8]: 219.4 mg/dL | Hb [8]: 13.5 g/dL | Ht [8]: 40.1% | Lym [8]: 80% | MCHC [8]: 33.6% | Mono [8]: 6.4% | Neu [8]: 12.6% | PT [8]: 12.4 s | Plat [8]: 106.5 x10_4/uL | RBC [8]: 600.2 x10_4/ul | Ret [8]: 9.1% | WBC [8]: 110.9 x10_2/uL | KIDNEY_L [8]: 0.8 g | KIDNEY_R [8]: 0.9 g | KIDNEY_TOTAL [8]: 1.7 g | LIVER [8]: 8.7 g | ALP [8]: 1158.6 IU/L | ALT [8]: 49 IU/L | BUN [8]: 19.2 mg/dL | CRE [8]: 0.5 mg/dL | Ca [8]: 11.3 mg/dL | DBIL [8]: 0.028 mg/dL | GLC [8]: 183.8 mg/dL | IP [8]: 9.9 mg/dL | K [8]: 4.6 meq/L | LDH [8]: 177.2 IU/L | Na [8]: 140 meq/L | PL [8]: 146.4 mg/dL | RALB [8]: 4 g/dL | TBIL [8]: 0.2 mg/dL | TC [8]: 84 mg/dL | TG [8]: 51.2 mg/dL | TP [8]: 6 g/dL | gamma-GTP [8]: 1.2 IU/L
